Data taken from ChEMBL document CHEMBL4834455, “Sesquiterpenes and Steroids from an Endophytic Eutypella scoparia” (J Nat Prod, 2021).
Calls of active or inactive are those of the source. The rule behind the calls is not given here.

Experiments:
[1] = Cytotoxicity against African green monkey MARC145 cells assessed as cell growth inhibition measured after 48 hrs by MTT assay; format: cell-based; settings: chlorocebus aethiops, marc145, 48 h
[2] = tested on: MCF7; experiment: Antiproliferative activity against human MCF7 cells assessed as cell growth inhibition measured after 48 hrs by MTT assay; format: functional, cell-based
[3] = tested on: HeLa; experiment: Antiproliferative activity against human HeLa cells assessed as cell growth inhibition measured after 48 hrs by MTT assay; format: functional, cell-based
[4] = tested on: MDA-MB-231; experiment: Antiproliferative activity against human MDA-MB-231 cells assessed as cell growth inhibition measured after 48 hrs by MTT assay; format: functional, cell-based
[5] = tested on: Staphylococcus aureus; experiment: Antibacterial activity against Staphylococcus aureus CMCC26003 assessed as bacterial growth inhibition by microbroth dilution method; format: functional
[6] = tested on: Staphylococcus aureus; experiment: Antibacterial activity against methicillin-resistant Staphylococcus aureus JCSC3063 assessed as bacterial growth inhibition by microbroth dilution method; format: functional

SMILES	Activity [1]	Activity [2]	Activity [3]	Activity [4]	Activity [5]	Activity [6]
CC1=CC(=O)C[C@@]2(C)CC[C@H](C(C)(C)O)C[C@H]12	Non-Toxic	inactive	inactive	inactive	inactive	inactive
CC1=CCC[C@@]2(C)C[C@H]3OC(=O)[C@@H](C)[C@@H]3C[C@H]12	Non-Toxic	inactive	inactive	inactive	inactive	inactive
CC1=CC(=O)C[C@@]2(C)CC[C@H](C(C)CO)C[C@H]12 (some centres not stated)	Non-Toxic	inactive	inactive	inactive	inactive	inactive
CC1=CCC[C@H]2CC3=C(CO)C(=O)OC3=C[C@]12C	Non-Toxic	inactive	inactive	inactive	inactive	inactive
CC(C)=CCC/C(C)=C/CC/C(C)=C/CC/C=C(\C)CC/C=C(\C)CCC=C(C)C [SQUALENE]	Non-Toxic	inactive	inactive	inactive	inactive	inactive
C[C@H]1CCC(=O)[C@@]2(C)CCC(C(C)(C)O)=C[C@H]12	Non-Toxic	inactive	inactive	inactive	inactive	inactive
C=C(C(C)C)[C@H](O)C[C@@H](C)[C@H]1CC[C@@]2(C)C3=C(CC[C@]12C)[C@@]1(C)CCC(=O)C(C)(C)[C@@H]1CC3	Non-Toxic	inactive	inactive	inactive	inactive	inactive
C=C1CCC(=O)[C@@]2(C)CC[C@H](C(C)(C)O)C[C@H]12	Non-Toxic	inactive	inactive	inactive	inactive	inactive
CC(=O)OCC(=O)[C@H]1CC[C@]2(C)CCC=C(C)[C@H]2C1	Non-Toxic	inactive	inactive	inactive	inactive	inactive
CC(C)[C@H](C)/C=C/[C@@H](C(=O)O)[C@H]1CCC2=C3C=C[C@H]4CC(=O)CC[C@]4(C)[C@H]3CC[C@@]21C	Non-Toxic	inactive	inactive	inactive	inactive	inactive
CC[C@H](CC[C@@H](C)[C@H]1CC[C@H]2[C@@H]3CC=C4C[C@@H](O)CC[C@]4(C)[C@H]3CC[C@]12C)C(C)C [BETA-SITOSTEROL]	Non-Toxic	inactive	inactive	inactive	inactive	inactive
C[C@H]1CCC(=O)[C@@]2(C)CC=C(C(C)(C)O)C[C@H]12	Non-Toxic	inactive	inactive	inactive	inactive	inactive
CC1=C2C[C@@H](C(C)(C)O)CC[C@]2(C)CCC1=O	Non-Toxic	inactive	inactive	inactive	inactive	inactive
CC(C)[C@@H](C)/C=C/[C@@H](C)[C@H]1CCC2=C3C=CC4=CC(=O)CC[C@]4(C)[C@H]3CC[C@@]21C	Non-Toxic	inactive	inactive	inactive	inactive	inactive
C=C1C[C@@H](O)C[C@@]2(C)CC[C@H](C(C)(C)O)C[C@H]12	Non-Toxic	inactive	inactive	inactive	inactive	inactive
CC1=CCCC2(C)CC[C@H](C(C)CO)C[C@H]12 (single isomer, unassigned)	Non-Toxic	inactive	inactive	inactive	6.3 µg/mL	–
C=C1CCC[C@@]2(C)CC[C@H](C(C)(C)O)C[C@H]12	Non-Toxic	inactive	inactive	inactive	inactive	inactive
C[C@H]1CCC(=O)[C@@]2(C)CC[C@H](C(C)(C)O)[C@H](O)[C@H]12	Non-Toxic	inactive	inactive	inactive	inactive	inactive
